AC50 data for 87 compounds are collected here from PubChem BioAssay AID463199 (Broad Institute, 2010).

Broadly, the AC50 is the concentration giving half of the maximal activity seen.

Calls of active or inactive are those of the source.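 Rule for the calls: active = AC50, the dose giving half-maximal effect, exceeds a fixed cutoff for a compound that rescues yeast growth under heat; inactive = the rest, inconclusive results apart.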

This experiment has as its system S. cerevisiae Burl-1 ts mutant growth, BacTiter-Glo, 38.5C 24 h. As to the kind of experiment: restored growth of temperature-sensitive Burl-1 yeast – whole organism, S. cerevisiae, Burl-1 ts mutant, luminescence, counter-screen for SUMOylation pathway inhibitor project, dose response (AID 463199). For orientation: Counterscreens check selectivity or assay interference.
In the case of `CCOC(=O)Nc1sc(=S)n(C)c1C`, the AC50 is > 42 µM (inactive).

For `CC(C)c1ccc2c(c1)CCC1C(C)(CN)CCCC21C` (configuration not stated), the AC50 is > 42 µM (inactive).

As to `COCCCNS(=O)(=O)c1ccc(Oc2ncc(C(F)(F)F)cc2Cl)cc1`, the AC50 is > 42 µM (inactive).

In the case of `COc1ccc(C(=O)OCC(=O)c2ccc(C)c(S(=O)(=O)N3CCOCC3)c2)cc1OC`, the AC50 is > 42 µM (inactive).

Turning to `O=C(c1ccco1)N1CCN(C2CC(=O)N(c3ccc(F)c(Cl)c3)C2=O)CC1` (configuration not stated), the AC50 was > 42 µM (inactive).

As to `CCOC(C(=O)OCCCN(CC)CC)(c1ccccc1)c1ccccc1`, the AC50 was > 42 µM (inactive).

Regarding `CCOc1ccc(OCC)c(NC(=O)C2COc3ccccc3O2)c1` (configuration not stated), the AC50 is > 42 µM (inactive).

For `N/C(Cn1cncn1)=N\NC(=O)c1ccc(Cl)cc1Cl`, the AC50 was > 42 µM (inactive).

As for `O=c1[nH]cnc2cc(Cl)ccc12`, the AC50 is 4 µM.

On to `O=C(CSc1nnc(CNC(=O)c2ccccc2F)o1)NCCc1ccccc1`, for which the AC50 is > 42 µM (inactive).

On to `O=C1NC(Cc2c[nH]c3ccccc23)C(=O)N1Cc1ccc(CN2C(=O)NC(Cc3c[nH]c4ccccc34)C2=O)cc1` (configuration not stated), for which the AC50 is > 42 µM (inactive).

Consider `CCCCC1=CC2=CC(=O)C(C)(OC(=O)CC)C(=O)C2=CN1CCc1ccc(Br)cc1` (configuration not stated), for which the AC50 was > 42 µM (inactive).

Take `COc1ccc(S(=O)(=O)N2CCCC2CNC(=O)C(=O)NCc2ccccn2)cc1` (configuration not stated): the AC50 was > 42 µM (inactive).

Turning to `O=C(CSc1nc(=O)n2ccccc2n1)N1CCN(c2ccccc2)CC1`, the AC50 was > 42 µM (inactive).

Take `Cc1cc(C)n(-c2ccc(C(=O)C(C#N)c3nc4ccccc4n3C)cc2)n1` (configuration not stated): the AC50 was > 42 µM (inactive).

As to `O=C(CSc1nc(-c2ccccc2)nc2ccc(F)cc12)Nc1cccc(C(=O)O)c1`, the AC50 was > 42 µM (inactive).

As to `CCCN(CC1CC1)C(=O)COc1ccccc1C(=O)NCc1ccccc1`, the AC50 was > 42 µM (inactive).

In the case of `CCOc1ccccc1NC(=O)CSc1nc(N)c(C#N)cc1C#N`, the AC50 was > 42 µM (inactive).

As for `CC(C)CCNC(=O)Cn1c(=O)oc2cc(S(=O)(=O)N3CC(C)CC(C)C3)ccc21` (configuration not stated), the AC50 was > 42 µM (inactive).

As for `CCOC(=O)C1(Cc2cccc(F)c2)CCN(C(=O)c2cnccn2)CC1`, the AC50 is > 42 µM (inactive).

Take `Cc1nc(-c2ccc(Cl)cc2)sc1C1(C)CC(c2c(Cl)cccc2Cl)=NO1` (configuration not stated): the AC50 was > 42 µM (inactive).

Take `CCCCNC(=O)c1ccccc1NC(=O)C1=C(C)OCCS1`: the concentration at half-maximal activity (AC50) is 11.3 µM.

Consider `COc1ccccc1CSc1ncc(-c2ccc([N+](=O)[O-])cc2)[nH]1`, for which the AC50 was > 42 µM (inactive).

Turning to `CC(OC(=O)c1cc(S(=O)(=O)N2CCOCC2)ccc1F)C(=O)NCc1ccc2c(c1)OCO2` (configuration not stated), the AC50 was > 42 µM (inactive).

With `COc1cc(CN2CCCC(CO)(Cc3cccc(Cl)c3)C2)cc2c1OCO2` (configuration not stated), the AC50 was > 42 µM (inactive).

Turning to `O=C(Nc1nccs1)c1ccc(S(=O)(=O)c2ccccc2)cc1`, the AC50 was > 42 µM (inactive).

With `Cc1ccc(C(C[N+](=O)[O-])c2c(C)[nH]n(-c3ccccc3)c2=O)cc1` (configuration not stated), the AC50 is 39.7 µM.

With `CC(C)C(NC(=S)Nc1ccccc1)C(=O)O` (configuration not stated), the AC50 was > 42 µM (inactive).

In the case of `Cc1nn(C(C)(C)C)c(OC(=O)c2ccc3c(c2)OCO3)c1S(=O)(=O)c1ccccc1`, the AC50 was > 42 µM (inactive).

Take `O=C(Nc1ccccc1N1CCOCC1)c1cc(Br)c(Br)s1`: the AC50 was > 42 µM (inactive).

Consider `C/C(CC(=O)Nc1cccc(Cl)c1Cl)=N\NC(=O)c1ccccc1C`, for which the AC50 is > 42 µM (inactive).

For `CC(C)(C)Cc1nc(-c2ccccn2)no1`, the AC50 was > 42 µM (inactive).

Take `Cc1cccc(N2C(=O)CSC2c2cccnc2)c1` (configuration not stated): the AC50 was > 42 µM (inactive).

For `CCOc1ccc2nc(C(C)O)[nH]c2c1` (configuration not stated), the AC50 was > 42 µM (inactive).

Turning to `Cc1ccc(NC(=O)Cn2nnc(C(=O)NCc3ccc4c(c3)OCO4)c2N)cc1`, the AC50 is > 42 µM (inactive).

In the case of `COCCCNC(=O)c1cc2cc([N+](=O)[O-])cc(OC)c2oc1=O`, the AC50 was > 42 µM (inactive).

In the case of `CC(=O)N1c2ccc([N+](=O)[O-])cc2NC(=O)CC1C` (configuration not stated), the AC50 was > 42 µM (inactive).

`c1ccc(C(c2ccccc2)N2CCN(C(c3ccccn3)c3nnnn3C3CCCC3)CC2)cc1` (configuration not stated): the AC50 is > 42 µM (inactive).

Turning to `CCCCc1ccc(S(=O)(=O)NNC(=S)NCc2ccco2)cc1`, the AC50 is > 42 µM (inactive).

In the case of `COC(=O)c1ccccc1SC(CC(=O)c1ccccc1)c1ccc(F)cc1` (configuration not stated), the AC50 was > 42 µM (inactive).

With `CCC(c1nnnn1C1CCCC1)N1CCN(c2cccc(OC)c2)CC1` (configuration not stated), the AC50 was > 21 µM (inactive).

With `COc1cc(NC(=O)c2ccccc2F)c(OC)cc1NC(=O)CN1CCCCC1`, the AC50 is > 42 µM (inactive).

As for `Cc1ccc(-c2csc(C3=C(O)CN(NC(=O)c4ccco4)C3=N)n2)cc1`, the AC50 is > 42 µM (inactive).

`CC1CCCC(C)N1CCCNC(=O)c1csc2c1CCCCC2` (configuration not stated): the AC50 was > 42 µM (inactive).

Take `O=C(Nc1ccc([N+](=O)[O-])cn1)c1ccc2c(c1)OCO2`: the AC50 was > 42 µM (inactive).

As for `O=C(Nc1ncccn1)c1ccc(C(F)(F)F)cc1`, the AC50 was > 42 µM (inactive).

Take `CC(C)C(=O)NCCSc1c[nH]c2ccccc12`: the AC50 is > 42 µM (inactive).

With `COc1ccc(-c2nnc(SCC(=O)N3CCCCC3)o2)cc1`, the AC50 was > 42 µM (inactive).

On to `CCOC(=O)C1=C(N)c2ccccc2CC1C1CCCC1` (configuration not stated), for which the AC50 is > 42 µM (inactive).

Turning to `CC(=O)c1ccc(C(=O)N2CCCC(N3CCN(c4ccc(F)cc4)CC3)C2)s1` (configuration not stated), the AC50 is > 42 µM (inactive).

For `CCn1c(SCc2nc3ccccc3s2)nnc1-c1ccccc1`, the AC50 was > 42 µM (inactive).

As for `COc1cc([N+](=O)[O-])cc(/C=N/NC(=O)c2cc(C)nc3ccccc23)c1O`, the AC50 was > 42 µM (inactive).

As to `COc1cccc(OC)c1C(=O)Nc1ccc2c(c1)n(C)c(=O)n2C`, the AC50 is > 42 µM (inactive).

`CCOc1ccc(S(=O)(=O)N2CCC(C(=O)N3CCN(c4ccccc4)CC3)CC2)cc1`: the AC50 is > 42 µM (inactive).

In the case of `O=C(NNc1ccccc1)C(CCO)C(=O)NNc1ccccc1`, the AC50 is > 42 µM (inactive).

With `Cc1occc1-c1nnc(SCC(=O)N2CCN(c3ccccc3)CC2)n1C`, the AC50 is > 42 µM (inactive).

Consider `O=C(NC1CCCC1)C(c1cccs1)N(C(=O)c1ccno1)c1ccccc1` (configuration not stated), for which the AC50 is > 42 µM (inactive).

Regarding `COc1ccc(CCC(=O)NNC(=S)Nc2cccc(C(C)=O)c2)cc1`, the AC50 was > 42 µM (inactive).

Regarding `CCCCn1c(N)c(N(CCOC)C(=O)c2ccc(Cl)c(S(=O)(=O)N3CCCCC3)c2)c(=O)[nH]c1=O`, the AC50 is > 42 µM (inactive).

For the compound `CCN1C(=S)N[C@@H](CCc2ccccc2)C(C(=O)OC)=C1C`, the AC50 is > 42 µM (inactive).

`CC(C)NC(=O)CCCc1cn(C)c2ccccc12`: the AC50 is > 42 µM (inactive).

Take `COc1ccc2c(c1)[C@H]1[C@H](CO2)[C@H](c2ccccc2)[C@]2(C)C(=O)Nc3cc(C)ccc3C(=O)N12`: the AC50 was > 42 µM (inactive).

Turning to `COCC(=O)n1nc(NCc2ccc(OC)cc2)nc1NCc1ccc(OC)cc1`, the AC50 is > 42 µM (inactive).

In the case of `c1coc(C2OCC3(CO2)COC(c2ccco2)OC3)c1` (configuration not stated), the AC50 is > 42 µM (inactive).

Consider `O=C(O)CCC(NC(=O)c1ccc(Cl)cc1)C(=O)O` (configuration not stated), for which the AC50 was > 42 µM (inactive).

For the compound `COc1cc(C(c2c(C)[nH][nH]c2=O)c2c(C)[nH][nH]c2=O)cc(OC)c1OC`, the AC50 is > 42 µM (inactive).

Regarding `Cc1cc(/C=N/NC(=O)c2ccsc2)c(C)n1-c1cnccn1`, the AC50 was > 42 µM (inactive).

Turning to `O=C(N/C(=C/c1ccc2c(c1)OCO2)C(=O)N1CCOCC1)c1cccs1`, the AC50 was > 42 µM (inactive).

Take `O=S(=O)(Cc1ccccc1)N1CCN(c2ncccn2)CC1`: the AC50 was > 42 µM (inactive).

Take `O=C(O)c1cccc(N2C(=O)C3C4C=CC(C4=C(c4ccccc4)c4ccccc4)C3C2=O)c1` (configuration not stated): the AC50 was > 42 µM (inactive).

On to `CCOC(=O)C1C(=O)NC(SCC(=O)Nc2nccs2)=C(C#N)C1c1ccccc1OCC` (configuration not stated), for which the AC50 is > 42 µM (inactive).

For `Cc1cc(Br)ccc1NC(=O)c1cnc(N2CCN(c3ccccn3)CC2)c2ccccc12`, the AC50 was > 42 µM (inactive).

For the compound `CCOc1ccc(C(=O)Nc2ccc(C(F)(F)F)n(C)c2=O)cc1`, the AC50 was > 42 µM (inactive).

As for `O=C(Nc1nc(-c2ccccn2)cs1)c1ccc2c(c1)OCCO2`, the AC50 is > 42 µM (inactive).

With `COc1ccc(S(=O)(=O)Nc2ccc(NC(C)=O)cc2)cc1OC`, the AC50 is > 42 µM (inactive).

With `O=C(NNC(=O)c1ccc(-n2cncn2)c([N+](=O)[O-])c1)c1ccc(Cl)cc1`, the AC50 was > 42 µM (inactive).

As for `FC(F)(F)c1nnc(-c2ccccc2)nc1Oc1ccc(Cl)cc1Cl`, the AC50 is > 42 µM (inactive).

As to `CC(C(=O)Nc1ccccc1-c1ccccc1)N1CCN(Cc2ccccc2)CC1` (configuration not stated), the AC50 is > 42 µM (inactive).

For the compound `CCOc1ccc(C(=O)NCC2OCCc3ccccc32)cc1` (configuration not stated), the AC50 was > 42 µM (inactive).

Regarding `COc1ccc(C(=O)O)cc1S(=O)(=O)NCCN(C)C`, the AC50 is > 42 µM (inactive).

Regarding `c1ccc(-c2nc(N3CCOCC3)c3ccccc3n2)nc1`, the AC50 is > 42 µM (inactive).

`COCCn1c(SCC(=O)NCc2cccs2)nnc1-c1ccc(OC)cc1`: the AC50 was > 42 µM (inactive).

In the case of `Cc1nc(N2CCN(c3ccccn3)CC2)c2c(C)c(C(=O)N3CCN(c4ccccc4F)CC3)sc2n1`, the AC50 is > 42 µM (inactive).

With `O=C(O)COc1ccc(Br)cc1/C=N\Nc1ccccn1`, the AC50 is > 42 µM (inactive).

Take `Cc1ccc(-c2nc(CS(=O)(=O)CC(=O)NC3CCCCC3C)c(C)o2)cc1` (configuration not stated): the AC50 is > 42 µM (inactive).

Regarding `CC(=O)c1c(Nc2cccc(F)c2)oc(C)cc1=O`, the AC50 was > 42 µM (inactive).

Turning to `Cc1ccccc1P(=O)(CO)c1ccccc1C`, the AC50 is > 42 µM (inactive).
